Experimental findings from patent publication US20250171431A1, “HETEROCYCLIC INHIBITORS OF IGF-1R FOR TREATMENT OF DISEASE” (HORIZON THERAPEUTICS IRELAND DAC, priority 2023, published 2025) are described below.

In the test the target is IGF-1R (Homo sapiens (Human), UniProt P08069). The test is described as follows: Example B-1: IGF-1R Assay (PC3 cells, IGF1 stimulation, AlphaLISA). It counts as cell-based. As to conditions: 200 ng/mL IGF1 stimulation, read-out: Biological Activity against IGF-1R IC50. The method, then: 50K PC3 cells were seeded on day 1 in 50 μL of media in 96-well plate and incubated overnight at 37° C., 5% CO2. On day 2, all cells were expected to be at 80-90% confluency. Cells were starved for two hours by changing the media to 90 μL of EMEM serum-free media and incubated for 2 hours. Next, cells were treated with 10 μL of 10× concentrated and 3× serially diluted compounds for two hours. It makes 1× of compounds in 100 μL media. This was followed by stimulation of cells with 11×IGF1 for 30 min in 10 μL of serum-free EMEM media at the final concentration of 200 ng/mL.
The media was removed and replaced by 50 μL of 1× lysis buffer from the AlphaLISA kit (with 1× of cOmplete™ protease inhibitor). The plates were sealed, and cells were allowed to lyse for 10 min in the shaker before storing the plate at −20° C. until used. The AlphaLISA assay with processed cell lysates were performed as described in the protocol. Briefly, 10 μL of the undiluted sample were loaded to 384 well Optiplates and 5 μL of the acceptor mix (as described in the AlphaLISA kit) was added to each well. The plates were sealed and briefly vortexed followed by the incubation at RT for 3 hours. In the dark, 5 μL of donor mix was added to each well. All plates were sealed and stored at RT overnight. The plates were read in EnVision reader using standard AlphaLISA settings.
Compound activity was analyzed using CBIS data analysis suite (ChemInnovation, CA). Percentage inhibition was calculated using the following formula: % Inhibition=100%×(1−(mean RLU of test sample−mean RLU of vehicle control)/(mean RLU of EC80 control−mean RLU of vehicle control)). The activity for representative examples of the invention is shown in the following table, wherein A: IC50≤500 nM; B: 500 nM<IC50≤2 μM; C: 2 μM<IC50≤10 μM; D: IC50>10 μM.

IGF-1R, sequence (P08069 31-1367): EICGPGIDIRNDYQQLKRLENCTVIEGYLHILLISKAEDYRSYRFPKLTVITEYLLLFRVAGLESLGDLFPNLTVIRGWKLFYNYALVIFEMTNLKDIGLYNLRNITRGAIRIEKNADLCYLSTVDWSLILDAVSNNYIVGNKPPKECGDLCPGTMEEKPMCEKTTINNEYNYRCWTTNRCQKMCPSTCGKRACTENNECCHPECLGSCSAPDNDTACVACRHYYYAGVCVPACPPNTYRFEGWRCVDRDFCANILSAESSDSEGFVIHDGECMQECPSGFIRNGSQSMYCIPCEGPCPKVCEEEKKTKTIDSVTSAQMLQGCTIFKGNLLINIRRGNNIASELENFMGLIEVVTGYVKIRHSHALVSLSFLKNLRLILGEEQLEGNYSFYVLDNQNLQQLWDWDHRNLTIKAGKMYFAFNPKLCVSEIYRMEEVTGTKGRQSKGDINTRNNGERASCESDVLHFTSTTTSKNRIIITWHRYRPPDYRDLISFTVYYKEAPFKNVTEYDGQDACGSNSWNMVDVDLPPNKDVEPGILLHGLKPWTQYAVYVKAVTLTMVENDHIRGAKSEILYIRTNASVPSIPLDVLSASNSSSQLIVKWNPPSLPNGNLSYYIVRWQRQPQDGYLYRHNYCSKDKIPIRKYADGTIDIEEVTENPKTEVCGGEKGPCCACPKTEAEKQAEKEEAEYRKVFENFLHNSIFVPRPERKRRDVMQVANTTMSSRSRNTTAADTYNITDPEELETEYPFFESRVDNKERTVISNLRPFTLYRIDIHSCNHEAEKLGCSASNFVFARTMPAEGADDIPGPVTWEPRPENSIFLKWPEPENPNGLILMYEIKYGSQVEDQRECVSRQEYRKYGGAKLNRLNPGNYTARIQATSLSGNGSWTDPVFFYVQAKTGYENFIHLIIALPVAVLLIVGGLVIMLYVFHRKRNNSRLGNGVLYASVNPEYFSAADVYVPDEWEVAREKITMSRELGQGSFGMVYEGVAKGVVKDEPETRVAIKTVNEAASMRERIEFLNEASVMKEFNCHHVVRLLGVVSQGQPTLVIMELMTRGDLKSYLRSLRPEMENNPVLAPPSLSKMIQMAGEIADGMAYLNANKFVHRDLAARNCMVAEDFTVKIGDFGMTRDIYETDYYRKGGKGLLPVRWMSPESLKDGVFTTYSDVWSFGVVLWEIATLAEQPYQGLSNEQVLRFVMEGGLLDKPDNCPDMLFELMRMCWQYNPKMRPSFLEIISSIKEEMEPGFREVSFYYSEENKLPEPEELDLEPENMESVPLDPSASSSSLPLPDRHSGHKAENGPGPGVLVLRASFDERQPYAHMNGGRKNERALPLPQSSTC

Usually IC50 stands for the concentration needed to halve the response being measured. `COc1cc(Nc2nccc(Nc3cnc4[nH]ccc4c3)n2)ccc1O[C@H]1C[C@@H](N(C)C)C1` [Compound 301, 4-(1H-1,7-diazainden-5-ylamino)-2-{3-methoxy-4-[(1s,3s)-3-(dimethylamino)cyclobutoxy]phenylamino}pyrimidine]: the concentration for half-maximal inhibition (IC50) is not above 500 nM.
For the molecule `COc1cc(Nc2nccc(Nc3cnc4cc(Cl)ccc4c3)n2)ccc1O[C@H]1C[C@H](N(C)C)C1` [Compound 324, 4-(7-chloro-3-quinolylamino)-2-{3-methoxy-4-[(1r,3r)-3-(dimethylamino)cyclobutoxy]phenylamino}pyrimidine], the half-inhibitory concentration (IC50) was not above 500 nM.
As for `CS(=O)(=O)c1ccc2ncc(Nc3ccnc(Nc4ccc(OCCCN5CCOCC5)cc4)n3)cc2c1` [Compound 411, 4-(6-mesyl-3-quinolylamino)-2-[p-(3-morpholinopropoxy)phenylamino]pyrimidine], the figure is 2000 to 10000 nM.
For `COc1cc(Nc2nccc(Nc3cnc4ccccc4c3)n2)ccc1O[C@H]1C[C@H](N2CCS(=O)(=O)CC2)C1` [Compound 24], the IC50 was not above 500 nM.
As for `COc1cc(Nc2nccc(Nc3cnc4c(c3)CCCC4C(C)(C)C)n2)ccc1OCCCN1CCCCC1` (stereo not drawn) [Compound 74, 4-[8-(tert-butyl)-5,6,7,8-tetrahydro-3-quinolylamino]-2-[3-methoxy-4-(3-piperidinopropoxy)phenylamino] pyrimidine], the figure is not above 500 nM; as for `COc1cc(Nc2nccc(Nc3cc4cccc(F)c4[nH]c3=O)n2)cnc1O[C@H]1CCN(C)C1` [Compound 166, 3-(2-{6-[(S)-1-methyl-3-pyrrolidinyloxy]-5-methoxy-3-pyridylamino}-4-pyrimidinylamino)-8-fluoro-1,2-dihydro-2-quinolinone], 500 to 2000 nM.
As to `COc1ccc2cc(Nc3ccnc(Nc4ccc(OCCCN5CCCCC5)c(OC)c4)n3)ccc2c1` [Compound 444, 4-(6-methoxy-2-naphthylamino)-2-[3-methoxy-4-(3-piperidinopropoxy)phenylamino] pyrimidine], the IC50 was not above 500 nM.
Regarding `COc1cc(Nc2nccc(Nc3cnc4c(c3)CSCC4)n2)ccc1OCCCN1CCCCC1` [Compound 377, 4-(7,8-dihydro-5H-6-thia-1-azanaphth-3-ylamino)-2-[3-methoxy-4-(3-piperidinopropoxy)phenylamino]pyrimidine], the IC50 was not above 500 nM.
As for `COc1cc(Nc2nccc(Nc3cnc4c(c3)CC3(CC4)OCCO3)n2)ccc1O[C@H]1C[C@@H](N(C)C)C1` [Compound 322, 4-(7′,8′-dihydro-5′H-spiro[1,3-dioxolane-2,6′-quinolin]-3′-ylamino)-2-{3-methoxy-4-[(1s,3s)-3-(dimethylamino)cyclobutoxy]phenylamino}pyrimidine], the figure is not above 500 nM.
As for `O=C1CN([C@H]2CC[C@@H](Oc3ccc(Nc4nccc(Nc5cnc6ccccc6c5)n4)cc3)CC2)CCN1` [Compound 41], the concentration for half-maximal inhibition (IC50) is not above 500 nM.
As for `COc1cc(Nc2nccc(Nc3ccc4c(c3)CCCC4=O)n2)ccc1OCCCN1CCCCC1` [Compound 449, 6-{2-[3-methoxy-4-(3-piperidinopropoxy)phenylamino]-4-pyrimidinylamino}-3,4-dihydro-1(2H)-naphthalenone], the figure is not above 500 nM; as for `COc1cc(Nc2nccc(Nc3cnc4cc(F)c(F)cc4c3)n2)cnc1N1C[C@H]2C[C@@H]1CO2` [Compound 127, 2-(6-{(1R,4R)-2-oxa-5-azabicyclo[2.2.1]hept-5-yl}-5-methoxy-3-pyridylamino)-4-(6,7-difluoro-3-quinolylamino)pyrimidine], not above 500 nM.
For `COc1cc(Nc2nccc(Nc3cnc4cc(F)c(F)cc4c3)n2)cnc1N1CCN(CC#N)CC1` [Compound 49] the value was not above 500 nM; for `COc1cc(Nc2nc(N)cc(Nc3cnc4cc(F)c(F)cc4c3)n2)cnc1O[C@H]1C[C@@H](N(C)C)C1` [Compound 252, 6-amino-4-(6,7-difluoro-3-quinolylamino)-2-{5-methoxy-6-[(1s,3s)-3-(dimethylamino)cyclobutoxy]-3-pyridylamino}pyrimidine], 2000 to 10000 nM; for `COc1cc(Nc2nccc(Nc3cnc4cc(F)c(F)cc4c3)n2)cnc1N1CCNC(=O)C1` [Compound 471, 4-{5-[4-(6,7-difluoro-3-quinolylamino)-2-pyrimidinylamino]-3-methoxy-2-pyridyl}-2-piperazinone], more than 10000 nM.
In the case of `COc1cc(N2CCN(C)CC2)ncc1Nc1nccc(Nc2cnc3ccc(Cl)cc3c2)n1` [Compound 486, 4-(6-chloro-3-quinolylamino)-2-[4-methoxy-6-(4-methyl-1-piperazinyl)-3-pyridylamino]pyrimidine], the IC50 was not above 500 nM.
`COc1cc(Nc2nccc(Nc3cnc4cc(C5CC5)ccc4c3)n2)ccc1OCCCN1CCCCC1` [Compound 107, 4-(7-cyclopropyl-3-quinolylamino)-2-[3-methoxy-4-(3-piperidinopropoxy)phenylamino]pyrimidine]: the IC50 was not above 500 nM.
Turning to `COc1cc(Nc2nccc(Nc3cnc4ccccc4c3)n2)ccc1O[C@H]1CC[C@@H](N(C)C)CC1` [Compound 331], the IC50 was not above 500 nM.
As for `COc1cc(Nc2nccc(Nc3cnc4ccccc4c3)n2)ccc1OC1CN(C)C1` [Compound 37, 2-[3-methoxy-4-(1-methyl-3-azetidinyloxy)phenylamino]-4-(3-quinolylamino)pyrimidine], the figure is not above 500 nM.
As to `COc1cc(Nc2nccc(Nc3cc4cccc(F)c4[nH]c3=O)n2)cnc1N1CCC(O)(C(F)(F)F)CC1` [Compound 228, 8-fluoro-3-(2-{6-[4-hydroxy-4-(trifluoromethyl)-1-piperidyl]-5-methoxy-3-pyridylamino}-4-pyrimidinylamino)-1,2-dihydro-2-quinolinone], the 50% inhibitory concentration (IC50) is not above 500 nM.
For `COc1cc(Nc2cc(Nc3cnc4ccccc4c3)ccn2)ccc1O[C@H]1C[C@@H](N(C)C)C1` [Compound 265, 2-{3-methoxy-4-[(1s,3s)-3-(dimethylamino)cyclobutoxy]phenylamino}-4-(3-quinolylamino)pyridine] the value was 2000 to 10000 nM; for `COc1cc(Nc2nccc(Nc3cnc4c(c3)CCCC43CCCC3)n2)ccc1OCCCN1CCCCC1` [Compound 370, 4-(6′,7′-dihydro-5′H-spiro[cyclopentane-1,8′-quinolin]-3′-ylamino)-2-[3-methoxy-4-(3-piperidinopropoxy)phenylamino] pyrimidine], not above 500 nM.
For `COc1cc(Nc2nccc(Nc3cnc4ccccc4c3)n2)ccc1O[C@H]1CC[C@@H](N2CCOCC2)CC1` [Compound 18, 2-{3-methoxy-4-[(1s,4s)-4-morpholinocyclohexyloxy]phenylamino}-4-(3-quinolylamino)pyrimidine] the value was not above 500 nM; for `COc1cc(Nc2nccc(Nc3cnc4c(c3)CN(C)CC4)n2)ccc1OCCCN1CCCCC1` [Compound 379, 2-[3-methoxy-4-(3-piperidinopropoxy)phenylamino]-4-(6-methyl-5,6,7,8-tetrahydro-1,6-diaza-3-naphthylamino)pyrimidine], 2000 to 10000 nM; for `COc1cc(Nc2nccc(Nc3cnc4c(c3)OCCC4)n2)ccc1OCCCN1CCCCC1` [Compound 383, 4-(3,4-dihydro-2H-1-oxa-5-azanaphth-7-ylamino)-2-[3-methoxy-4-(3-piperidinopropoxy)phenylamino]pyrimidine], not above 500 nM.
As for `CN(C)[C@H]1C[C@H](Oc2ccc(Nc3nccc(Nc4cnc5ccccc5c4)n3)cc2C(F)(F)F)C1` [Compound 36, 4-(3-quinolylamino)-2-{4-[(1r,3r)-3-(dimethylamino)cyclobutoxy]-3-(trifluoromethyl)phenylamino} pyrimidine], the figure is not above 500 nM.
`COc1cc(Nc2nccc(Nc3cnc4c(F)cc(F)cc4c3)n2)ccc1O[C@H]1C[C@@H](N(C)C)C1` [Compound 113, 4-(6,8-difluoro-3-quinolylamino)-2-{3-methoxy-4-[(1s,3s)-3-(dimethylamino)cyclobutoxy]phenylamino}pyrimidine]: the IC50 is not above 500 nM.
Regarding `COc1cc(Nc2nccc(Nc3cnc4c(c3)OC(C)CO4)n2)ccc1OCCCN1CCCCC1` (stereo not drawn) [Compound 387, 2-[3-methoxy-4-(3-piperidinopropoxy)phenylamino]-4-(2-methyl-2,3-dihydro-1,4-dioxa-5-aza-7-naphthylamino)pyrimidine], the IC50 was not above 500 nM.
In the case of `COc1cc(Nc2nccc(Nc3cnc4c(c3)COC(C)(C)C4)n2)ccc1OCCCN1CCCCC1` [Compound 385, 4-(7,7-dimethyl-7,8-dihydro-5H-6-oxa-1-azanaphth-3-ylamino)-2-[3-methoxy-4-(3-piperidinopropoxy)phenylamino]pyrimidine], the IC50 was 500 to 2000 nM.
Consider `COc1cc(Nc2nccc(Nc3cnc4ccccc4c3)n2)ccc1O[C@H]1CC[C@H](N2CCOCC2)CC1` [Compound 16, 2-{3-methoxy-4-[(1r,4r)-4-morpholinocyclohexyloxy]phenylamino}-4-(3-quinolylamino)pyrimidine], for which the half-inhibitory concentration (IC50) is not above 500 nM.
